Test results published in PubChem BioAssay AID1919672.
pEC50: −log10 of the molar value. Inconclusive results are not listed.

Target: Excitatory amino acid transporter 2 (Homo sapiens) (UniProt P43004)
Test: aspartate transport by overexpressed wild-type EAAT2 – HEK293 overexpressing cells, iAspSnFR biosensor, flow cytometry, dose response (AID 1919672)
Conditions: HEK293 SLC1A2-OE, iAspSnFR aspartate uptake

Sequence of Excitatory amino acid transporter 2 (Homo sapiens) (P43004 whole entry, looked up, the tested form may be a part): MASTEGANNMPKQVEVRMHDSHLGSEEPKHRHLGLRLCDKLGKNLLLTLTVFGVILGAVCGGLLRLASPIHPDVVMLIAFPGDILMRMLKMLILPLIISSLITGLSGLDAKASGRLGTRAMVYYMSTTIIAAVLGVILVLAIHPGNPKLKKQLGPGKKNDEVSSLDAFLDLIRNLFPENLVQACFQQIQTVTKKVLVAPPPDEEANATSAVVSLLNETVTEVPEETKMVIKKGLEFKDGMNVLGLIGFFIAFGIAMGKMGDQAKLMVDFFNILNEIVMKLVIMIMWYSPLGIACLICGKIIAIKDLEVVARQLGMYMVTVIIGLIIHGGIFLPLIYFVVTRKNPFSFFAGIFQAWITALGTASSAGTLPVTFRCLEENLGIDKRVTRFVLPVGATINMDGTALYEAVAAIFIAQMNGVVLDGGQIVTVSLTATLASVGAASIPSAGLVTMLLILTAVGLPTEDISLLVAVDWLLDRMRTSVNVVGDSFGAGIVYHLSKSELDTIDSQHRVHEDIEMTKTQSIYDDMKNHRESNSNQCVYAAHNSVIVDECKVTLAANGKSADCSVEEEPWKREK

pEC50: 4.96
Structure (SMILES): N[C@@H](CC(=O)O)C(=O)O
